# Experimental data reported in patent US6476027B1, “N-hydroxy 4-sulfonyl butanamide compounds” (Monsanto Company, priority 1997, dated 2002).
# Counter-ions that a name gives are not always drawn.
# Key:
# MMP-2 = target: T1, MMP-2 (Homo sapiens, UniProt P08253); assay: In vitro metalloprotease inhibition, fluorogenic MCA peptide substrate; assay type: biochemical; settings: room temperature, pH 7.5, 4 μM substrate
# T1 sequence (P08253 110-660): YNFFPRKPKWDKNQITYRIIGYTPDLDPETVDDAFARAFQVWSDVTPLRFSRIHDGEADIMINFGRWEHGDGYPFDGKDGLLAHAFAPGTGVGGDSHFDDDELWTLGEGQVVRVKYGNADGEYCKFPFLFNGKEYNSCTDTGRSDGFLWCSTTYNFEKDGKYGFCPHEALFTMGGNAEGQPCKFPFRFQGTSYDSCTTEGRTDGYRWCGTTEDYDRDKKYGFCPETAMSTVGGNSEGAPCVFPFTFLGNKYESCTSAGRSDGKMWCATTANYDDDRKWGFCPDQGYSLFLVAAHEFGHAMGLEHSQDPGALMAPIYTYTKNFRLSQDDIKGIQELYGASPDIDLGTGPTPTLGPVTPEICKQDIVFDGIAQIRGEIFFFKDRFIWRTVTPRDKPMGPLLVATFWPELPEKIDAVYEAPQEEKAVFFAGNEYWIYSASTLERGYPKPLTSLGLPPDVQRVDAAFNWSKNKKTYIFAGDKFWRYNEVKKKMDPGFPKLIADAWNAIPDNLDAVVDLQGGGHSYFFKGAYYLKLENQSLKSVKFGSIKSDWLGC
# Experimental: (§1) Briefly, 4-aminophenylmercuric acetate (APMA) or trypsin activated MMPs were incubated with various concentrations of the inhibitor compound at room temperature for 5 minutes.
# (§2) MCA-ProLeuGlyLeuDpaAlaArgNH^2, wherein MCA is methoxycoumarin and Dpa is 3-(2,4-dinitrophenyl)-L-2,3-diaminopropionyl alanine.
# (§3) The buffer used for assays contained 100 mM Tris-HCl, 100 mM NaCl, 10 mM CaCl2 and 0.05 percent polyethyleneglycol (23) lauryl ether at a pH value of 7.5.
# recombinant human MMP-13 = target: T2, recombinant human MMP-13 (Homo sapiens, UniProt P45452); assay: as above; assay type: biochemical; settings: room temperature, pH 7.5, 4 μM substrate, APMA-activated enzyme
# T2 construct: made in house
# Experimental: as §1
# (§4) More specifically, recombinant human MMP-13 and MMP-1 enzymes were prepared in laboratories of the assignee. MMP-13 was expressed in baculovirus as a proenzyme, and purified first over a heparin agarose column and then over a chelating zinc chloride column. The proenzyme was activated by APMA for use in the assay. MMP-1 expressed in transfected HT-1080 cells was provided by Dr. Howard Welgus of Washington University, St. Louis, Mo. The enzyme was also activated using APMA and was then purified over a hydroxamic acid column.
# as §2, §3
# recombinant human MMP-1 = target: T3, recombinant human MMP-1 (Homo sapiens, UniProt P03956); assay: as above; assay type: biochemical; settings: room temperature, pH 7.5, 4 μM substrate, APMA-activated enzyme
# T3 construct: made in house; host or cells: transfected HT-1080 cells (provided by Dr. Howard Welgus, Washington University)
# T3 sequence (P03956 100-469): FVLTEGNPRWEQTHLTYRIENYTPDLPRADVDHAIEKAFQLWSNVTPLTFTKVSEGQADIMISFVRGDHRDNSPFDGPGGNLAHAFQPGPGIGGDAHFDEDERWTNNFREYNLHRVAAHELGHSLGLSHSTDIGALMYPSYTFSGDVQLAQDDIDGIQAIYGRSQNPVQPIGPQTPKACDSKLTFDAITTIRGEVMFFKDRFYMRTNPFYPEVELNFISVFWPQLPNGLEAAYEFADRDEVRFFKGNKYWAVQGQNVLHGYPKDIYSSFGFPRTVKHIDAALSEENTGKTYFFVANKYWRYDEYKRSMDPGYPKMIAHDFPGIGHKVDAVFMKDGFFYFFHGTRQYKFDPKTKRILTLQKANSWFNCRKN
# Experimental: as §1, §4, §2, §3
# [1] = test system: advanced, rapidly progressive, treatment-refractory solid tumor cancers; settings: cited from earlier work
IC50 (MMP-2),IC50 (recombinant human MMP-13),IC50 (recombinant human MMP-1),SMILES,"effect on cancer-specific antigens used as surrogate markers for biological activity ([1]; Phase I/II, colorectal, pancreatic, ovarian, prostate cancers)","most common drug-related toxicity ([1]; clinical trials, patients with advanced solid tumor cancers)"
1.8 nM,2.4 nM,> 10000 nM,CC(C)(CS(=O)(=O)c1ccc(Oc2ccccc2)cc1)[C@H](NC(=O)CN1CCCC1)C(=O)NO [Example 14],,
0.6 nM,1.8 nM,1800 nM,"CC(C)(CS(=O)(=O)c1ccc(Oc2ccccc2)cc1)[C@H](NC(=O)CN1CCOCC1)C(=O)NO [Example 13a, (S)-N-[1-[(Hydroxyamino)carbonyl]-2,2-dimethyl-3-[(4-phenoxyphenyl)sulfonyl]-propyl]-4-morpholineacetamide Monohydrochloride]",,
0.3 nM,1.6 nM,3300 nM,CC(C)(CS(=O)(=O)c1ccc(Oc2ccccc2)cc1)[C@H](N)C(=O)NO [Example 12],,
< 0.1 nM,< 0.1 nM,50 nM,CC(C)(C)OC(=O)N[C@H](C(=O)NO)C(C)(C)CS(=O)(=O)c1ccc(Oc2ccccc2)cc1 [Example 11],,
7.7 nM,13.9 nM,> 10000 nM,O=C(NO)C(CCS(=O)(=O)c1ccc(Oc2ccccc2)cc1)N1CCCCC1 (centres unmarked) [Example 15],,
1.5 nM,2.4 nM,,CC(C)(CS(=O)(=O)c1ccc(Oc2ccccc2)cc1)[C@H](OCc1ccccn1)C(=O)NO [Example 10],,
70 nM,169 nM,> 10000 nM,O=C(NO)C1(CCS(=O)(=O)c2ccc(Oc3ccccc3)cc2)CCNCC1 [Example 17],,
0.3 nM,1.4 nM,770 nM,CC(C)(CS(=O)(=O)c1ccc(Oc2ccccc2)cc1)[C@H](NC(=O)CN1CCOCC1)C(=O)NO [Example 13],,
169 nM,400 nM,> 10000 nM,CC(C)(C)OC(=O)N1CCC(CCS(=O)(=O)c2ccc(Oc3ccccc3)cc2)(C(=O)NO)CC1 [Example 16],,

# More lines, now with the values behind:
SMILES,IC50 (MMP-2),IC50 (recombinant human MMP-13),IC50 (recombinant human MMP-1),"effect on cancer-specific antigens used as surrogate markers for biological activity ([1]; Phase I/II, colorectal, pancreatic, ovarian, prostate cancers)","most common drug-related toxicity ([1]; clinical trials, patients with advanced solid tumor cancers)"
O=C(NO)C(O)CCS(=O)(=O)c1ccc(Oc2ccccc2)cc1 (centres unmarked) [Example 4],15.8 nM,54.4 nM,> 10000 nM,,
"CNC(=O)[C@@H](NC(=O)[C@H](CC(C)C)[C@H](O)C(=O)NO)C(C)(C)C [marimastat, Marimastat]",,,,dose-related reduction in the rise of cancer-specific antigens,musculoskeletal pain and stiffness
"CC(C)(CS(=O)(=O)c1ccc(Oc2ccccc2)cc1)[C@H](OCc1ccncc1)C(=O)NO [Example 9a, (S)-N-Hydroxy-3,3-dimethyl-4-[(4-phenoxyphenyl)sulfonyl]-2-(4-pyridinylmethoxy)butanamide]",1.3 nM,3 nM,7000 nM,,
"CC(C)(CS(=O)(=O)c1ccc(Oc2ccccc2)cc1)[C@H](OCc1cccnc1)C(=O)NO [Example 8a, (S)-N-Hydroxy-3,3-dimethyl-4-[(4-phenoxyphenyl)sulfonyl]-2-(3-pyridinylmethoxy)butanamide]",2.2 nM,5 nM,> 10000 nM,,
CC(CCS(=O)(=O)c1ccc(Oc2ccccc2)cc1)C(=O)NO (centres unmarked) [Example 5],3.2 nM,1.8 nM,> 10000 nM,,
CC(C)(CS(=O)(=O)c1ccc(Oc2ccccc2)cc1)[C@@H](O)C(=O)NO [Example 2],2 nM,8.8 nM,> 10000 nM,,
CC(C)(CCS(=O)(=O)c1ccc(Oc2ccccc2)cc1)C(=O)NO [Example 3],1000 nM,2600 nM,> 10000 nM,,
COc1ccc(S(=O)(=O)CCCC(=O)NO)cc1 [Example 6],,2000 nM,,,
CC(C)(CS(=O)(=O)c1ccc(Oc2ccccc2)cc1)[C@H](O)C(=O)NO [Example 1],0.3 nM,1.9 nM,6300 nM,,
Cc1ccc(Oc2ccc(S(=O)(=O)CCC(O)C(=O)NO)cc2)cc1C (racemic) [Example 7],120 nM,400 nM,> 10000 nM,,
